The values below come from ChEMBL document CHEMBL3627657, “Design, synthesis, biological evaluation and docking study of 4-isochromanone hybrids bearing N-benzyl pyridinium moiety as dual binding site acetylcholinesterase inhibitors” (Bioorg Med Chem Lett, 2015).

One data set concerns the target Cholinesterase (Equus caballus, UniProt P81908).
Data set [1] is described as follows: Selectivity index, ratio of IC50 for equine serum BuChE to IC50 for electric eel AChE.
The target in a further data set is Acetylcholinesterase (Electrophorus electricus, UniProt O42275). The experiment in a line: Inhibition of electric eel AChE using […] as substrate by Ellman's method. (In general: In Ellman's method for cholinesterases, released thiocholine reacts with DTNB.)
A short description of data set [2]: Lipophilicity, log D of the compound at pH 7.4 by UV-metric/potentiometric method. The class given is physicochemical. The settings on record: buffer.
Data set [3] can be described thus: Lipophilicity, log P of the compound by UV-metric/potentiometric method. In kind it is physicochemical. The note with it: octanol/water.
A short description of data set [4]: Dissociation constant, pKa of the compound by UV-metric/potentiometric method. In kind it is physicochemical.
Data set [5] deals with Acetylcholinesterase (Electrophorus electricus) (UniProt O42275). The experiment in a line: Mixed type inhibition of electric eel AChE using […] as substrate by Lineweaver-Burk plot analysis.

Molecules are shown by their SMILES. Active and inactive are the calls of the source. No cut-off for these calls is given here. Where only a bound is given, the exact number is not on record here.

Cholinesterase, sequence (P81908 whole entry): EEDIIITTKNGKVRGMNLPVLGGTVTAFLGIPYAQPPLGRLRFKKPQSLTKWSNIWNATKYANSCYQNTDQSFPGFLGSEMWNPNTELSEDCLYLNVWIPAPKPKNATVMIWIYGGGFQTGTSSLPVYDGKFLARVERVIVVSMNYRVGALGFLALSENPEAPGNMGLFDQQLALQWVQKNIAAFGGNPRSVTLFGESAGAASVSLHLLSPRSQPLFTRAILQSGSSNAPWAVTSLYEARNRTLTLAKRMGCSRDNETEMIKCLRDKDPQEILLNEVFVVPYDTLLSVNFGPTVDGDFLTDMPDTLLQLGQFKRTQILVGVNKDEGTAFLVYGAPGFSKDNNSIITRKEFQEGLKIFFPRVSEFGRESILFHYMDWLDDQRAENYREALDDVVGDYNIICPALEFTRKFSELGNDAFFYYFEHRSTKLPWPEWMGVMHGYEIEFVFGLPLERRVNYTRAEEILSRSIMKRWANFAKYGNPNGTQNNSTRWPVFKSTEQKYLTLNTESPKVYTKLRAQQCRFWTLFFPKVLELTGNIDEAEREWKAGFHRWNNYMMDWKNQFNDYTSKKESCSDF
Acetylcholinesterase, sequence (O42275 whole entry): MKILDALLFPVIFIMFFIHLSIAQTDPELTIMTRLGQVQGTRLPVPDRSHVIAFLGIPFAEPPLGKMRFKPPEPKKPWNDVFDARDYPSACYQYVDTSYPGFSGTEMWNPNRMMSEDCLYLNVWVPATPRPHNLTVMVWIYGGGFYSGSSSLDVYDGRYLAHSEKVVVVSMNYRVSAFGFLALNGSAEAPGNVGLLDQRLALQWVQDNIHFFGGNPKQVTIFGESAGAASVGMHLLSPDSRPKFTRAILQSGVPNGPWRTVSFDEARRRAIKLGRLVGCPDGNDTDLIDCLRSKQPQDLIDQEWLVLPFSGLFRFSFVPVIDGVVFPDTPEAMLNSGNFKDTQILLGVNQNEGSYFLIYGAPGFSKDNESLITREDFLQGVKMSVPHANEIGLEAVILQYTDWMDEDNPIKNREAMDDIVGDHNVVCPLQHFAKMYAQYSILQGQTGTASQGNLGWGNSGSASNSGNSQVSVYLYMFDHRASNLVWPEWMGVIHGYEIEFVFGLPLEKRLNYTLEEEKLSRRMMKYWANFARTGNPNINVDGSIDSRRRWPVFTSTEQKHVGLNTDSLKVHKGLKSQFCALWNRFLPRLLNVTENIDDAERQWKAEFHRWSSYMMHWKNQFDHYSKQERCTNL
Acetylcholinesterase (Electrophorus electricus), sequence (O42275 24-633 limits assumed): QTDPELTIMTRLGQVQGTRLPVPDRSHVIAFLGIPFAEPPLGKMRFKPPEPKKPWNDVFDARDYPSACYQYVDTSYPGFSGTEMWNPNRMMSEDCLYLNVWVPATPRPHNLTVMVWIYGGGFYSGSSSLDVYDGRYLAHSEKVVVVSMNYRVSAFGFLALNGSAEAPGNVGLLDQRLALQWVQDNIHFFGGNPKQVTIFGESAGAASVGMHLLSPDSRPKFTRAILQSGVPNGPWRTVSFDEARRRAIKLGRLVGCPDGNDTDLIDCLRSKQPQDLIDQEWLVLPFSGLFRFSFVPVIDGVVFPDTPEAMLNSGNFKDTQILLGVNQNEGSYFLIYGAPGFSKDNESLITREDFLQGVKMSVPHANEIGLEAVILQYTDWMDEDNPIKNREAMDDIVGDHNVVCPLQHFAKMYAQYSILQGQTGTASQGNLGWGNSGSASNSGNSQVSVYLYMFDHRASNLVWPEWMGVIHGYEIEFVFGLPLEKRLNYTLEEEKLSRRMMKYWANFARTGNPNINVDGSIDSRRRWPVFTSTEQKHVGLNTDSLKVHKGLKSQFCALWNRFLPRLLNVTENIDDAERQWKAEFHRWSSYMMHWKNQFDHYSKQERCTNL

The IC50 is the point on the concentration scale where inhibition reaches its midpoint. The low end stands for higher potency, the high end for lower potency. In the case of `COc1ccc(C[n+]2ccc(/C=C3\OCc4c(ccc(OC)c4OC)C3=O)cc2)cc1`, the IC50 is 4.33 µM against Cholinesterase and 1190 nM against Acetylcholinesterase. In addition, in data set [1], the Ratio IC50 was determined as 3.6.

With `COc1ccc2c(c1OC)CO/C(=C\c1cc[n+](Cc3cccc(Cl)c3)cc1)C2=O`, the IC50 against Cholinesterase is 9.92 µM; on Acetylcholinesterase, 69.7 nM. The Ratio IC50 in data set [1] stood at 142.

For the molecule `COc1ccc2c(c1OC)CO/C(=C\c1cc[n+](Cc3cccc([N+](=O)[O-])c3)cc1)C2=O`, the IC50 against Cholinesterase was 29.2 µM; at Acetylcholinesterase, 456 nM. The Ratio IC50 in data set [1] amounted to 64.

In the case of `COc1ccc2c(c1OC)CO/C(=C\c1cc[n+](Cc3ccccc3[N+](=O)[O-])cc1)C2=O`, the figures for the IC50 against Cholinesterase and at Acetylcholinesterase were 20.9 µM and 503 nM, respectively. In data set [1], the Ratio IC50 is 41.6.

`COc1ccc2c(c1OC)CO/C(=C\c1cc[n+](Cc3ccccc3F)cc1)C2=O`: the figures for the IC50 at Cholinesterase and against Acetylcholinesterase were 4.41 µM and 21.1 nM, respectively. Moreover, the Ratio IC50 in data set [1] came to 209.

Turning to `COc1ccc2c(c1OC)CO/C(=C\c1cc[n+](Cc3ccc([N+](=O)[O-])cc3)cc1)C2=O`, the IC50 on Cholinesterase was above 100 µM; on Acetylcholinesterase, 3550 nM.

One may read the logD as the decadic logarithm of the distribution of all forms, ionised or not, between an organic phase and buffer at a given pH. What is called logP is a log measure of how a compound divides between an organic and an aqueous phase. Read a high logP as higher lipophilicity. Broadly, the pKa is the negative logarithm of the acid dissociation constant. In the case of `COc1ccc2c(c1OC)CO/C(=C\c1cc[n+](Cc3ccccc3Cl)cc1)C2=O`, in data set [2], the logD stood at 1.96. Besides, the figures for the IC50 against Cholinesterase and at Acetylcholinesterase were 3.64 µM and 15.9 nM, respectively. In addition, in data set [3], the logP stood at 3.2. In addition, the pKa in data set [4] was determined as 8.62. Also, in data set [1], the Ratio IC50 is 229.

On to `COc1ccc2c(c1OC)CO/C(=C\c1cc[n+](Cc3cccc(F)c3)cc1)C2=O`, for which the IC50 was 9.44 µM against Cholinesterase and 26.3 nM against Acetylcholinesterase. For the same molecule, the Ratio IC50 in data set [1] worked out at 359.

Molecule `COc1ccc2c(c1OC)CO/C(=C\c1cc[n+](Cc3ccccc3)cc1)C2=O` came in with a logD in data set [2] of 1.28. Also, the figures for the IC50 against Cholinesterase and at Acetylcholinesterase were 6.87 µM and 44.8 nM, respectively. In addition, the lipophilicity (logP) in data set [3] worked out at 2.53. In data set [4], this molecule had a pKa of 8.68. Moreover, the Ratio IC50 in data set [1] is 153.

Regarding `COc1ccc2c(c1OC)CO/C(=C\c1cc[n+](Cc3ccc(Cl)cc3)cc1)C2=O`, the values for the IC50 against Cholinesterase and at Acetylcholinesterase were 3.56 µM and 646 nM, respectively. Further, in data set [1], the Ratio IC50 stood at 5.5.

As for `COc1ccc2c(c1OC)CO/C(=C\c1cc[n+](Cc3ccc(F)cc3)cc1)C2=O`, in data set [5], the inhibition result was “Active”. Further, the logD in data set [2] turned out to be 1.45. The IC50 at Cholinesterase was found to be 2.07 µM; against Acetylcholinesterase, 8.93 nM. Also, in data set [3], the logP was 2.84. The pKa in data set [4] turned out to be 8.79. For the same molecule, the Ratio IC50 in data set [1] was determined as 232.

`COc1cccc(C[n+]2ccc(/C=C3\OCc4c(ccc(OC)c4OC)C3=O)cc2)c1`: the IC50 was found to be 3.06 µM on Cholinesterase and 441 nM against Acetylcholinesterase. The Ratio IC50 in data set [1] came out at 7.

Regarding `COc1ccccc1C[n+]1ccc(/C=C2\OCc3c(ccc(OC)c3OC)C2=O)cc1`, the IC50 at Cholinesterase is 8.79 µM; against Acetylcholinesterase it was 640 nM. The Ratio IC50 in data set [1] is 13.
